Assay results published in patent EP3733658B1, “PRENYLATED BENZOPYRANES AS PPAR AGONISTS” (Universitat de València, priority 2017, dated 2019).
Read-outs that look alike come from different tables or passages of the source.

Tests used:
hPPARγ = molecular target: T1, hPPARγ (Homo sapiens, UniProt P37231); experiment: PPAR/Gal4 chimera luciferase reporter transactivation assay in transiently transfected Cos-7 cells (hPPARγ); type: cell-based; settings: for Emax: COS-7, read-out: hPPARγ Efficacy (%); for hPPARγ Efficacy (%): maximum activity as percentage of the maximum activity of rosiglitazone
T1 sequence (P37231 238-505): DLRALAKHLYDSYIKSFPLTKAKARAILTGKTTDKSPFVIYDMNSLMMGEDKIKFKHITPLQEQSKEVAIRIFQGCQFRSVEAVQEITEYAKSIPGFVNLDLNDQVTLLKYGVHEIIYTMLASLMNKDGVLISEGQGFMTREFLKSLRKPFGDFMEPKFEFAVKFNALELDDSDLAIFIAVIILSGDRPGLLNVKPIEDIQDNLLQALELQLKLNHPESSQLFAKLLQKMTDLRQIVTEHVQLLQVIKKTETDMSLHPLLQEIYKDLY
Experimental: (§1) The cells were maintained under standard culture conditions (Dulbecco modified minimum essential Eagle medium, DMEM) supplemented with 10% fetal calf serum (FCS) at 37°C in 5% […] CO2 atmosphere. The medium was changed every 2 days. The Cos-7 cells were seeded in 60 mm discs at a density of 5.5 × 10^5 cells/disc in DMEM supplemented with 10% FCS and incubated at 37°C for 16 h before transfection. The cells were transfected in DMEM using jetPEI, with reporter (pG5-TK-pGL3) and expression (pGal4-h, hPPARα or hPPARγ) plasmids. The expression plasmid pCMV-β-galactosidase was cotransfected as a control for transfection efficacy. After 16 h the transfection was stopped adding DMEM supplemented with 10% FCS, and the cells were trypsinised and seeded in 96-well plates and incubated for 6 h in DMEM containing 10% FCS. Subsequently, the cells were incubated for 24 h in DMEM containing 0.2% FCS and increasing concentrations of the compounds or the vehicle (DMSO, maximum concentration 0.1%) were tested. Finally, the cells were washed once with PBS cooled on ice, lysed and the luciferase and β-galactosidase assays were performed.
(§2) To evaluate the compounds for PPAR transcriptional activity, the tests were conducted in a PPAR/Gal4 chimera of a human luciferase reporter gene to determine the maximum transactivation response of each compound.

hPPARα = molecular target: T2, hPPARα (Homo sapiens, UniProt Q07869); experiment: PPAR/Gal4 chimera luciferase reporter transactivation assay in transiently transfected Cos-7 cells (hPPARα); type: cell-based; settings: for Emax: COS-7, read-out: hPPARα Efficacy (%); for hPPARα Efficacy (%): maximum activity as percentage of the maximum activity of WY-14643; for EC50: Cos-7 cells, 24 h, tested 0.001 to 10 µM, read-out: hPPARα EC50
T2 sequence (Q07869 167-468): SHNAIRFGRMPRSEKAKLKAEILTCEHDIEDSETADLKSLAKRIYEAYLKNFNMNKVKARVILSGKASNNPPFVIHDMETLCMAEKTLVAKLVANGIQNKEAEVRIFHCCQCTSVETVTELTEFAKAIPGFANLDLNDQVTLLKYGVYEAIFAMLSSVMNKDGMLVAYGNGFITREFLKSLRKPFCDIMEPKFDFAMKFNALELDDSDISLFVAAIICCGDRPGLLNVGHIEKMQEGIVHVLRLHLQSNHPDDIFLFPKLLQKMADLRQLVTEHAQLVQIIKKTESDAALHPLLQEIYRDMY
Experimental: as §1, §2

human neutrophils [1] = experiment: MTT colorimetric cell viability assay, neutrophils; type: cell-based; settings: 30 µM, 24 h
Experimental: (§3) To evaluate potential adverse effects (cytotoxicity) of the compounds of the invention, the compounds 1 and 2 for use according to the present invention, compound 8 of the invention, and the reference compounds were evaluated at concentrations of 30 and 100 µM in human neutrophils (Fig. 1A) and primary cultures of human umbilical vein endothelial cells (HUVEC) (Fig. 1B) using two different techniques: MTT colorimetry assay and flow cytometry analysis for cellular apoptosis and survival. In addition, the synthetic compound 9 of the invention was evaluated at 10, 30 and 100 µM (Fig. 2).
(§4) MTT assay. The viability of neutrophils and HUVEC was determined by the MTT colorimetric assay MTT (3(4,5-dimethylthiazol-2-yl)-2,5-diphenyltetrazoyl bromide).
Neutrophils were obtained from the leukocyte-platelet fraction (buffy coats) of healthy donors by centrifuging with Ficoll-Hypaque density gradient.
(§5) 100 µL of neutrophils and HUVEC (2 × 10^5 cells/mL) suspension in supplemented RPMI medium were added to each well of a 96-well plate. The cells were incubated in absence and/or presence of the compounds at 37°C for24h. An MTT solution was prepared (2 mg/mL in PBS). 100 µL of the MTT solution were added to each well and incubated at 37°C for an additional 3 h. The supernatants were discarded and 200 µL of DMSO were added to each well to dissolve the precipitated formazan. The optical densities at two wavelengths (560 and 630 nm) were measured in a spectrophotometer (Infinite M200, Tecan, Mannedorf, Switzerland).

[2] = Treatment of ob/ob mice: plasma metabolites (cholesterol, HDL-c, triglycerides, free fatty acids, ALT, AST); type: in vivo; settings: oral, 4 days
Experimental: […]. […] […].
Free fatty acids (FFA) in plasma, and the enzymes aspartate aminotransferase (AST) and alanine aminotransferase (ALT) were determined with a colorimetric assay kit (Sigma-Aldrich, Madrid, Spain). In addition the plasma lipid levels for total cholesterol and triglycerides (TG) were measured by enzymatic methods (WAKO, Cape Charles, VA). The concentration of HDLcholesterol (HDL-c) was also determined with the same method used to measure total cholesterol, after precipitating the apolipoprotein-B (apoB) with dextran sulphate/MgCl2 (Sigma-Aldrich, Madrid, Spain) as previously described (Zieske et al., 2005).

[3] = system: human umbilical vein endothelial cells (HUVEC); experiment: MTT colorimetric cell viability assay, HUVEC; type: cell-based; settings: 30 µM, 24 h
Experimental: as §3, §4
Human umbilical vein endothelial cells (HUVEC) were isolated with the collagenase treatment and maintained in a human specific endothelial base medium (EBM-2) supplemented with endothelial growth medium (EGM-2) and 10% FCS. Cells of the first passage were cultured until their confluence in 24-well plates. Before starting each experiment, the cells were incubated for 24 h in a medium containing 1% FBS.
as §5

HUVEC = experiment: Annexin V / propidium iodide flow cytometry of apoptosis and survival, HUVEC; type: cell-based, human; settings: 24 h; for apoptosis and survival: 30 µM; for reduced cell survival: 100 µM
Experimental: (§6) In addition, the apoptosis and survival rate for human neutrophils and HUVEC was determined by double staining with annexin V and propidium iodide (PI) by flow cytometry.
(§7) Cytofluorometric analysis of apoptosis and survival. The kit FITC Annexin V Apoptosis Detection kit (BD Bioscience, San Jose, CA) was used. The staining protocol and all the reagents were supplied with the commercial kit. HUVEC were separated from the culture flasks by accutase (StemPro® Accutase® Cell dissociation reagent, Thermofischer Scientific Waltham, MA). Both cell types were incubated at 37°C for 24h in the presence or absence of the test compounds. Confluent HUVEC and freshly isolated neutrophils were washed, resuspended in binding buffer 1x (1 × 10^6 cells/mL) and stained with annexin V conjugated with FITC and propidium iodide (PI) as described in the manufacturer's instructions. The cells were analyzed in a BD FACSVerse Flow Cytometer (BD Biosciences, San Jose, CA) and differentiated as early apoptosis cells (annexin V^+ and PI^-), late apoptosis cells and/or necrotic cells (annexin V^+ and PI^+), and live cells (annexin V^- and PI^-).

human neutrophils [4] = experiment: Annexin V / propidium iodide flow cytometry of apoptosis and survival, neutrophils; type: cell-based; settings: 100 µM, 24 h, compared to the vehicle
Experimental: as §6, §7

[5] = Cos-7 cells, 24 h, tested 0.001 to 10 µM, read-out: hPPARγ EC50

Compound	Emax (hPPARγ) [%]	Emax (hPPARα) [%]	EC50 (hPPARγ; [5]) [nM]	also measured
C/C(=C\CCC1(C)CCc2cc(OCc3ccccc3)cc(C)c2O1)CC/C=C(\C)C(=O)OCc1ccccc1 (stereo not shown) [Compound 4b]	0	28		
COC(=O)C(OC(=O)/C(C)=C/CC/C(C)=C/CCC1(C)CCc2cc(OC)cc(C)c2O1)C(=O)OC (stereo not shown) [Compound 7]	37	76		
CCCOC(=O)/C(C)=C/CC/C(C)=C/CCC1(C)CCc2cc(O)cc(C)c2O1 (stereo not shown) [Compound 3]	86	100		
CCOC(=O)/C(=C/CC/C(C)=C/CCC1(C)CCc2cc(OCc3ccc(F)cc3)ccc2O1)OCC (stereo not shown) [Compound 12]	183	113	2000	
COC(=O)C(C)=CCCC(C)=CCCC1(C)CCc2cc(O)cc(C)c2O1 (stereo not shown) [Compound 5]			574	hPPARγ Efficacy (%) (hPPARγ): 35%; hPPARα Efficacy (%) (hPPARα): 27%
Cc1cccc(Nc2cc(Cl)nc(SCC(=O)O)n2)c1C [WY-14643, reference compound]				cytotoxicity (MTT) (human neutrophils [1]): 9%; triglyceride levels in plasma (in words) [2]: decrease of triglyceride levels in plasma, although not in a significant manner; increase of total cholesterol levels with respect to the control group ([2]; plasma, 30 mg/Kg/d): 64%; HDL-c with respect to the control group ([2]; plasma, compound 9 10 and 30 mg/Kg/d, WY-14643 30 mg/Kg/d): significantly increased
COC(=O)COC(=O)/C(C)=C/CC/C(C)=C/CCC1(C)CCc2cc(OC(=O)c3ccccc3)cc(C)c2O1 (stereo not shown) [Compound 6]	0	14		
COC(=O)COC(=O)/C(C)=C/CC/C(C)=C/CCC1(C)CCc2cc(OC)cc(C)c2O1 (stereo not shown) [Compound 8]	24	39	12	toxicity (MTT) (human neutrophils [1]): showed toxicity; toxicity (MTT) [3]: showed toxicity; apoptosis and survival (HUVEC): some significant effects; reduced cell survival (HUVEC): 61,3%; effect on cell survival (human neutrophils [4]): 5.3%
CCOC(=O)/C(=C/CC/C(C)=C/CCC1(C)CCc2cc(OCc3ccccc3)ccc2O1)OCC (stereo not shown) [Compound 10]	183	60	2000	
COc1cc(C)c2c(c1)CCC(C)(CC/C=C(\C)CC/C=C(\C)C(=O)O)O2 (stereo not shown) [Polycerasoidin, 2, polycerasoidin]	55	82	1000	toxicity (MTT) (human neutrophils [1]): showed toxicity; toxicity (MTT) [3]: showed toxicity; apoptosis and survival (HUVEC): some significant effects; reduced cell survival (HUVEC): 38,9%; EC50 (hPPARα): 1000 nM
C/C(=C\CCC1(C)CCc2cc(OCC(N)=O)cc(C)c2O1)CC/C=C(\C)C(=O)OCc1ccccc1 (stereo not shown) [Compound 4a]	0	18		
CCO/C(=C\CC/C(C)=C/CCC1(C)CCc2cc(OCc3ccccc3)ccc2O1)C(=O)O (stereo not shown) [Compound 11]	62	96	300	EC50 (hPPARα): 1500 nM
CCOC(=O)C(=CCCC1(C)CCc2cc(OCc3ccccc3)ccc2O1)OCC(F)(F)F (stereo not shown) [Compound 13]				EC50 (hPPARγ): 400 nM; hPPARγ Efficacy (%) (hPPARγ): 39%; hPPARα Efficacy (%) (hPPARα): 166%
CN(CCOc1ccc(CC2SC(=O)NC2=O)cc1)c1ccccn1 (stereo not shown) [Rosiglitazone, rosiglitazone, reference compound]				apoptosis and survival (HUVEC): some significant effects; reduced cell survival (HUVEC): 79,2%; effect on cell survival (human neutrophils [4]): 8.5%
